According to patent US7776912B2, “Acetals of nepetalic acid and method of preparation” (E.I. du Pont de Nemours and Company, priority 2006, dated 2010):

Tested on: Aedes aegypti mosquitoes
Assay: in vitro Gupta box landing assay (insect repellency)
Type: in vivo
Details: 1% (w/v) in IPA, mean of three replicates; for % Mean repellency: 25 μl applied to Baudruche membrane over bovine blood, landings recorded over 20 min, (C−T)/C×100 vs IPA control well; for Mean time to first landing / Mean number of total landings: 25 μl on membrane; for Mean time to first landing: about 250 female Aedes aegypti; for Mean number of total landings: recorded at 2 min intervals over 20 min
Protocol: The products of Examples 1-6 were evaluated for the insect repellency against Aedes aegypti mosquitoes in the in vitro Gupta box landing assay. In this method, a chamber contained 5 wells, each covered by a Baudruche (animal intestine) membrane. Each well was filled with bovine blood, containing sodium citrate (to prevent clotting) and ATP (72 mg ATP disodium salt per 26 ml of blood), and heated to 37° C. A volume of 25 μl of isopropyl alcohol(IPA) containing one test specimen, or DEET as a control, was applied to each membrane. The concentrations were all 1% w/v in IPA except where otherwise indicated. The control was a membrane surface treated with a 1% solution of DEET.
After 5 min, approximately 250 4-day-old female Aedes aegypti mosquitoes were introduced into the chamber. The number of mosquitoes probing the membranes for each treatment was recorded at 2 min intervals over 20 min. Each datum represents the mean of three replicate experiments.
C=the total number of landings on the IPA control well, and
T=the total number of landings on the test solution well.
The % mean repellencies at 1% (w/v) are depicted in Table 2 in addition to mean time to first landing, and mean number of total landings for the nepetalic acid acetals of Examples 1-6 and for DEET as a control.

SMILES: CCCCOC1OC(=O)[C@H]2[C@H](CC[C@@H]2C)C1C (stereo partly drawn) [Example 5, (4aR,7S,7aR)-3-n-butoxy-4,7-dimethylhexahydrocyclopenta[c]pyran-1(3H)-one]
- % Mean repellency: 17.80%
- Mean time to first landing: 2.8 min
- Mean number of total landings: 33.8

SMILES: CC(C)OC1OC(=O)[C@H]2[C@H](CC[C@@H]2C)C1C (stereo partly drawn) [Example 4, (4aR,7S,7aR)-3-isopropoxy-4,7-dimethylhexahydrocyclopenta[c]pyran-1(3H)-one]
- % Mean repellency: 73.20%
- Mean time to first landing: 2.8 min
- Mean number of total landings: 30.6

SMILES: COC1OC(=O)[C@H]2[C@H](CC[C@@H]2C)C1C (stereo partly drawn) [Example 1, (4aR,7S,7aR)-3-methoxy-4,7-dimethylhexahydrocyclopenta[c]pyran-1(3H)-one]
- % Mean repellency: 79.30%
- Mean time to first landing: 3.2 min
- Mean number of total landings: 12.2

SMILES: CC(C)COC1OC(=O)[C@H]2[C@H](CC[C@@H]2C)C1C (stereo partly drawn) [Example 6, (4aR,7S,7aR)-3-isobutoxy-4,7-dimethylhexahydrocyclopenta[c]pyran-1(3H)-one]
- % Mean repellency: 20.40%
- Mean time to first landing: 2.0 min
- Mean number of total landings: 91.6

SMILES: CCN(CC)C(=O)c1cccc(C)c1 [DEET, N,N-diethyltoluamide, reference compound]
- % Mean repellency: 68.60%
- Mean time to first landing: 3.5 min
- Mean number of total landings: 17.7

SMILES: CCOC1OC(=O)[C@H]2[C@H](CC[C@@H]2C)C1C (stereo partly drawn) [Example 2, (4aR,7S,7aR)-3-ethoxy-4,7-dimethylhexahydrocyclopenta[c]pyran-1(3H)-one]
- % Mean repellency: 52.40%
- Mean time to first landing: 5.2 min
- Mean number of total landings: 26.4

SMILES: CCCOC1OC(=O)[C@H]2[C@H](CC[C@@H]2C)C1C (stereo partly drawn) [Example 3, (4aR,7S,7aR)-3-n-propoxy-4,7-dimethylhexahydrocyclopenta[c]pyran-1(3H)-one]
- % Mean repellency: 89.10%
- Mean time to first landing: 11.6 min
- Mean number of total landings: 5.2
